Laboratory results reported in patent US12660819B2, “Herbicidal derivatives” (SYNGENTA CROP PROTECTION AG, priority 2020, dated 2026).

Columns and labels:
Type in all cases: in vivo
[1] = test system: Amaranthus retoflexus (AMARE); test: Pre-emergence Test (glasshouse, percentage damage to the plant); conditions: 1000 g/ha unless otherwise stated, five-point scale
[2] = test system: Echinochloa crus-galli (ECHCG); test: as above; conditions: 1000 g/ha unless otherwise stated, five-point scale
Zea mays (ZEAMX) [3] = test: as above; conditions: 1000 g/ha unless otherwise stated, five-point scale
[4] = test system: Abutilon theophrasti (ABUTH); test: as above; conditions: 1000 g/ha unless otherwise stated, five-point scale
[5] = test system: Abutilon theophrasti (ABUTH); test: Post-emergence Test (glasshouse, percentage damage to the plant); conditions: post-emergence spray, 1000 g/ha unless otherwise stated, evaluated after 13 days
Procedure, shortened: (§1)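 Damage was rated 13 days after treatment and expressed on a five-point scale: 5=81-100%, 4=61-80%, 3=41-60%, 2=21-40%, 1=0-20%. Spray was applied at 1000 g/ha unless otherwise stated, from acetone/water (50:50) with 0.5% Tween 20, to sown pots.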

Zea mays (ZEAMX) [6] = test: as above; conditions: post-emergence spray, 1000 g/ha unless otherwise stated, evaluated after 13 days
Procedure, shortened: (§2)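 Scored 13 days after spraying as percentage plant damage in five bands (5=81–100%, 4=61–80%, 3=41–60%, 2=21–40%, 1=0–20%). Spray at 1000 g/ha unless stated, in acetone/water 50:50 plus 0.5% Tween 20, onto sown glasshouse pots (24/16 °C, 14 h light, 65% humidity).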

[7] = test system: Amaranthus retoflexus (AMARE); test: as above; conditions: post-emergence spray, 1000 g/ha unless otherwise stated, evaluated after 13 days
Procedure, shortened: as §1

[8] = test system: Echinochloa crus-galli (ECHCG); test: as above; conditions: post-emergence spray, 1000 g/ha unless otherwise stated, evaluated after 13 days
Procedure, shortened: as §1

Setaria faberi (SETFA) [9] = test: as above; conditions: post-emergence spray, 1000 g/ha unless otherwise stated, evaluated after 13 days
Procedure, shortened: as §2

[10] = test system: Ipomoea hederacea (IPOHE); test: as above; conditions: post-emergence spray, 1000 g/ha unless otherwise stated, evaluated after 13 days
Procedure, shortened: as §2

Setaria faberi (SETFA) [11] = test: Pre-emergence Test (glasshouse, percentage damage to the plant); conditions: 1000 g/ha unless otherwise stated, five-point scale
[12] = test system: Ipomoea hederacea (IPOHE); test: as above; conditions: 1000 g/ha unless otherwise stated, five-point scale

SMILES: CCn1c(C)c(-c2cc(Cl)nc(OC(C)C)c2)c(=O)c(C(=O)O)c1-c1ccc(Cl)c(Cl)c1 [Compound 69, 5-(2-chloro-6-isopropoxy-4-pyridyl)-2-(3,4-dichlorophenyl)-1-ethyl-6-methyl-4-oxo-pyridine-3-carboxylic acid]
- percentage damage to the plant, AMARE [1]: 1 (1=0-20%)
- percentage damage to the plant, ECHCG [2]: 1 (1=0-20%)
- percentage damage to the plant, ZEAMX (Zea mays (ZEAMX) [3]): 2 (2=21-40%)
- percentage damage to the plant, ABUTH [4]: 2 (2=21-40%)
- Post-emergence Test ABUTH, percentage damage to the plant (five-point scale) [5]: 2 (2=21-40%)
- Post-emergence Test ZEAMX, percentage damage to the plant (five-point scale) (Zea mays (ZEAMX) [6]): 1 (1=0-20%)
- Post-emergence Test AMARE, percentage damage to the plant (five-point scale) [7]: 2 (2=21-40%)
- Post-emergence Test ECHCG, percentage damage to the plant (five-point scale) [8]: 1 (1=0-20%)
- Post-emergence Test SETFA, percentage damage to the plant (five-point scale) (Setaria faberi (SETFA) [9]): 3 (3=41-60%)
- Post-emergence Test IPOHE, percentage damage to the plant (five-point scale) [10]: 3 (3=41-60%)
- percentage damage to the plant, SETFA (Setaria faberi (SETFA) [11]): 4 (4=61-80%)
- percentage damage to the plant, IPOHE [12]: 4 (4=61-80%)

SMILES: CCn1c(C)c(-c2cc(F)cc(C#N)c2)c(=O)c(C(=O)O)c1-c1ccc(Cl)c(Cl)c1 [Compound 78, 5-(3-cyano-5-fluoro-phenyl)-2-(3,4-dichlorophenyl)-1-ethyl-6-methyl-4-oxo-pyridine-3-carboxylic acid]
- percentage damage to the plant, AMARE [1]: 2 (2=21-40%)
- percentage damage to the plant, ECHCG [2]: 3 (3=41-60%)
- percentage damage to the plant, ZEAMX (Zea mays (ZEAMX) [3]): 1 (1=0-20%)
- percentage damage to the plant, ABUTH [4]: 1 (1=0-20%)
- Post-emergence Test ABUTH, percentage damage to the plant (five-point scale) [5]: 2 (2=21-40%)
- Post-emergence Test ZEAMX, percentage damage to the plant (five-point scale) (Zea mays (ZEAMX) [6]): 1 (1=0-20%)
- Post-emergence Test AMARE, percentage damage to the plant (five-point scale) [7]: 1 (1=0-20%)
- Post-emergence Test ECHCG, percentage damage to the plant (five-point scale) [8]: 2 (2=21-40%)
- Post-emergence Test SETFA, percentage damage to the plant (five-point scale) (Setaria faberi (SETFA) [9]): 3 (3=41-60%)
- Post-emergence Test IPOHE, percentage damage to the plant (five-point scale) [10]: 1 (1=0-20%)
- percentage damage to the plant, SETFA (Setaria faberi (SETFA) [11]): 4 (4=61-80%)
- percentage damage to the plant, IPOHE [12]: 2 (2=21-40%)

SMILES: CCn1c(C)c(-c2ccc(F)cc2OC)c(=O)c(C(=O)O)c1-c1ccc(Cl)c(Cl)c1 [Compound 157, 2-(3,4-dichlorophenyl)-1-ethyl-5-(4-fluoro-2-methoxy-phenyl)-6-methyl-4-oxo-pyridine-3-carboxylic acid]
- percentage damage to the plant, AMARE [1]: 0
- percentage damage to the plant, ECHCG [2]: 4 (4=61-80%)
- percentage damage to the plant, ZEAMX (Zea mays (ZEAMX) [3]): 3 (3=41-60%)
- percentage damage to the plant, ABUTH [4]: 4 (4=61-80%)
- Post-emergence Test ABUTH, percentage damage to the plant (five-point scale) [5]: 4 (4=61-80%)
- Post-emergence Test ZEAMX, percentage damage to the plant (five-point scale) (Zea mays (ZEAMX) [6]): 4 (4=61-80%)
- Post-emergence Test AMARE, percentage damage to the plant (five-point scale) [7]: 1 (1=0-20%)
- Post-emergence Test ECHCG, percentage damage to the plant (five-point scale) [8]: 4 (4=61-80%)
- Post-emergence Test SETFA, percentage damage to the plant (five-point scale) (Setaria faberi (SETFA) [9]): 4 (4=61-80%)
- Post-emergence Test IPOHE, percentage damage to the plant (five-point scale) [10]: 4 (4=61-80%)
- percentage damage to the plant, SETFA (Setaria faberi (SETFA) [11]): 5 (5=81-100%)
- percentage damage to the plant, IPOHE [12]: 2 (2=21-40%)

SMILES: CCn1c(C)c(-c2ccc(C(C)(C)C)cc2)c(=O)c(C(=O)O)c1-c1ccc(Cl)c(Cl)c1 [Compound 55, 5-(4-tert-butylphenyl)-2-(3,4-dichlorophenyl)-1-ethyl-6-methyl-4-oxo-pyridine-3-carboxylic acid]
- percentage damage to the plant, AMARE [1]: 1 (1=0-20%)
- percentage damage to the plant, ECHCG [2]: 1 (1=0-20%)
- percentage damage to the plant, ZEAMX (Zea mays (ZEAMX) [3]): 1 (1=0-20%)
- percentage damage to the plant, ABUTH [4]: 1 (1=0-20%)
- Post-emergence Test ABUTH, percentage damage to the plant (five-point scale) [5]: 1 (1=0-20%)
- Post-emergence Test ZEAMX, percentage damage to the plant (five-point scale) (Zea mays (ZEAMX) [6]): 1 (1=0-20%)
- Post-emergence Test AMARE, percentage damage to the plant (five-point scale) [7]: 1 (1=0-20%)
- Post-emergence Test ECHCG, percentage damage to the plant (five-point scale) [8]: 1 (1=0-20%)
- Post-emergence Test SETFA, percentage damage to the plant (five-point scale) (Setaria faberi (SETFA) [9]): 1 (1=0-20%)
- Post-emergence Test IPOHE, percentage damage to the plant (five-point scale) [10]: 1 (1=0-20%)
- percentage damage to the plant, SETFA (Setaria faberi (SETFA) [11]): 1 (1=0-20%)
- percentage damage to the plant, IPOHE [12]: 1 (1=0-20%)

SMILES: CCn1c(C)c(-c2cccc(C(F)F)c2)c(=O)c(C(=O)O)c1-c1ccc(Cl)c(Cl)c1 [Compound 106, 2-(3,4-dichlorophenyl)-5-[3-(difluoromethyl)phenyl]-1-ethyl-6-methyl-4-oxo-pyridine-3-carboxylic acid]
- percentage damage to the plant, AMARE [1]: 1 (1=0-20%)
- percentage damage to the plant, ECHCG [2]: 1 (1=0-20%)
- percentage damage to the plant, ZEAMX (Zea mays (ZEAMX) [3]): 1 (1=0-20%)
- percentage damage to the plant, ABUTH [4]: 2 (2=21-40%)
- Post-emergence Test ABUTH, percentage damage to the plant (five-point scale) [5]: 3 (3=41-60%)
- Post-emergence Test ZEAMX, percentage damage to the plant (five-point scale) (Zea mays (ZEAMX) [6]): 1 (1=0-20%)
- Post-emergence Test AMARE, percentage damage to the plant (five-point scale) [7]: 3 (3=41-60%)
- Post-emergence Test ECHCG, percentage damage to the plant (five-point scale) [8]: 1 (1=0-20%)
- Post-emergence Test SETFA, percentage damage to the plant (five-point scale) (Setaria faberi (SETFA) [9]): 1 (1=0-20%)
- Post-emergence Test IPOHE, percentage damage to the plant (five-point scale) [10]: 2 (2=21-40%)
- percentage damage to the plant, SETFA (Setaria faberi (SETFA) [11]): 1 (1=0-20%)
- percentage damage to the plant, IPOHE [12]: 1 (1=0-20%)

SMILES: CCn1c(C)c(-c2cc(Cl)c(OC)c(OC)c2)c(=O)c(C(=O)O)c1-c1ccc(Cl)c(Cl)c1 [Compound 87, 5-(3-chloro-4,5-dimethoxy-phenyl)-2-(3,4-dichlorophenyl)-1-ethyl-6-methyl-4-oxo-pyridine-3-carboxylic acid]
- percentage damage to the plant, AMARE [1]: 1 (1=0-20%)
- percentage damage to the plant, ECHCG [2]: 1 (1=0-20%)
- percentage damage to the plant, ZEAMX (Zea mays (ZEAMX) [3]): 1 (1=0-20%)
- percentage damage to the plant, ABUTH [4]: 1 (1=0-20%)
- Post-emergence Test ABUTH, percentage damage to the plant (five-point scale) [5]: 3 (3=41-60%)
- Post-emergence Test ZEAMX, percentage damage to the plant (five-point scale) (Zea mays (ZEAMX) [6]): 1 (1=0-20%)
- Post-emergence Test AMARE, percentage damage to the plant (five-point scale) [7]: 2 (2=21-40%)
- Post-emergence Test ECHCG, percentage damage to the plant (five-point scale) [8]: 2 (2=21-40%)
- Post-emergence Test SETFA, percentage damage to the plant (five-point scale) (Setaria faberi (SETFA) [9]): 3 (3=41-60%)
- Post-emergence Test IPOHE, percentage damage to the plant (five-point scale) [10]: 2 (2=21-40%)
- percentage damage to the plant, SETFA (Setaria faberi (SETFA) [11]): 4 (4=61-80%)
- percentage damage to the plant, IPOHE [12]: 1 (1=0-20%)

SMILES: CCn1c(C)c(-c2cnccn2)c(=O)c(C(=O)O)c1-c1ccc(Cl)cn1 [Compound 168, 2-(5-chloro-2-pyridyl)-1-ethyl-6-methyl-4-oxo-5-pyrazin-2-yl-pyridine-3-carboxylic acid]
- percentage damage to the plant, AMARE [1]: 0
- percentage damage to the plant, ECHCG [2]: 0
- percentage damage to the plant, ZEAMX (Zea mays (ZEAMX) [3]): 0
- percentage damage to the plant, ABUTH [4]: 0
- Post-emergence Test ABUTH, percentage damage to the plant (five-point scale) [5]: 0
- Post-emergence Test ZEAMX, percentage damage to the plant (five-point scale) (Zea mays (ZEAMX) [6]): 0
- Post-emergence Test AMARE, percentage damage to the plant (five-point scale) [7]: 0
- Post-emergence Test ECHCG, percentage damage to the plant (five-point scale) [8]: 0
- Post-emergence Test SETFA, percentage damage to the plant (five-point scale) (Setaria faberi (SETFA) [9]): 0
- Post-emergence Test IPOHE, percentage damage to the plant (five-point scale) [10]: 0
- percentage damage to the plant, SETFA (Setaria faberi (SETFA) [11]): 0
- percentage damage to the plant, IPOHE [12]: 0

SMILES: CCn1c(C)c(-c2ccc(OC)c(C)c2)c(=O)c(C(=O)O)c1-c1ccc(Cl)c(Cl)c1 [Compound 100, 2-(3,4-dichlorophenyl)-1-ethyl-5-(4-methoxy-3-methyl-phenyl)-6-methyl-4-oxo-pyridine-3-carboxylic acid]
- percentage damage to the plant, AMARE [1]: 1 (1=0-20%)
- percentage damage to the plant, ECHCG [2]: 1 (1=0-20%)
- percentage damage to the plant, ZEAMX (Zea mays (ZEAMX) [3]): 1 (1=0-20%)
- percentage damage to the plant, ABUTH [4]: 1 (1=0-20%)
- Post-emergence Test ABUTH, percentage damage to the plant (five-point scale) [5]: 3 (3=41-60%)
- Post-emergence Test ZEAMX, percentage damage to the plant (five-point scale) (Zea mays (ZEAMX) [6]): 3 (3=41-60%)
- Post-emergence Test AMARE, percentage damage to the plant (five-point scale) [7]: 2 (2=21-40%)
- Post-emergence Test ECHCG, percentage damage to the plant (five-point scale) [8]: 1 (1=0-20%)
- Post-emergence Test SETFA, percentage damage to the plant (five-point scale) (Setaria faberi (SETFA) [9]): 3 (3=41-60%)
- Post-emergence Test IPOHE, percentage damage to the plant (five-point scale) [10]: 1 (1=0-20%)
- percentage damage to the plant, SETFA (Setaria faberi (SETFA) [11]): 4 (4=61-80%)
- percentage damage to the plant, IPOHE [12]: 1 (1=0-20%)
